# Test results from ChEMBL document CHEMBL3875162, “Synthesis and biological evaluation of new benzimidazole-thiazolidinedione hybrids as potential cytotoxic and apoptosis inducing agents” (Eur J Med Chem, 2016).
# Calls of active or inactive are those of the source. No cut-off for these calls is given here.
# Legend:
# A549 [1] = assay: Induction of apoptosis in human A549 cells assessed as cell membrane blebbing at 5 uM after 24 hrs by acridine orange/ethidium bromide-dual staining based fluorescence microscopic method; type: functional
# A549 [2] = assay: Induction of apoptosis in human A549 cells assessed as necrotic cells at 10 uM after 24 hrs by Annexin V-FITC/propidium iodide staining based flow cytometry (reference value: 2.3%); type: functional
# [3] = Cell cycle arrest in human A549 cells assessed as decrease in cell levels at G0/G1 phase after 24 hrs by propidium iodide staining-based flow cytometry; type: functional
# A549 [4] = assay: Induction of apoptosis in human A549 cells assessed as appearance of horse-shoe shaped nucleus at 5 to 15 uM after 24 hrs by DAPI staining based fluorescence microscopic method; type: functional, cell-based
# [5] = Induction of apoptosis in human A549 cells assessed as irregular distribution of chromatin at 10 to 15 uM after 24 hrs by acridine orange/ethidium bromide-dual staining based fluorescence microscopic method; type: functional, cell-based
# [6] = Cytotoxicity against human A549 cells assessed as cell growth inhibition after 48 hrs by MTT assay; type: functional, cell-based; details: A549, 48 h
# A549 [7] = assay: Induction of morphological changes in human A549 cells assessed as […] at 5 to 15 uM after 24 hrs by phase contrast microscopic method; type: functional, cell-based
# A549 [8] = assay: Induction of apoptosis in human A549 cells assessed as early apoptotic cells at 15 uM after 24 hrs by Annexin V-FITC/propidium iodide staining based flow cytometry (reference value: 2.6%); type: functional
# A549 [9] = assay: Induction of apoptosis in human A549 cells assessed as late apoptotic cells at 10 uM after 24 hrs by Annexin V-FITC/propidium iodide staining based flow cytometry (reference value: 0.8%); type: functional
# [10] = Cell cycle arrest in human A549 cells assessed as accumulation at G2/M phase at 10 uM after 24 hrs by propidium iodide staining-based flow cytometry (reference value: 23.3%); type: functional
# A549 [11] = assay: Induction of apoptosis in human A549 cells assessed as late apoptotic cells at 15 uM after 24 hrs by Annexin V-FITC/propidium iodide staining based flow cytometry (reference value: 0.8%); type: functional
# A549 [12] = assay: Induction of apoptosis in human A549 cells assessed as nucleus fragmentation at 5 to 15 uM after 24 hrs by DAPI staining based fluorescence microscopic method; type: functional, cell-based
# [13] = Cell cycle arrest in human A549 cells assessed as accumulation at G2/M phase at 15 uM after 24 hrs by propidium iodide staining-based flow cytometry (reference value: 23.3%); type: functional
# A549 [14] = assay: Induction of apoptosis in human A549 cells assessed as pyknosis at 5 to 15 uM after 24 hrs by DAPI staining based fluorescence microscopic method; type: functional, cell-based
# A549 [15] = assay: Induction of apoptosis in human A549 cells assessed as early apoptotic cells at 10 uM after 24 hrs by Annexin V-FITC/propidium iodide staining based flow cytometry (reference value: 2.6%); type: functional
# [16] = Cell cycle arrest in human A549 cells assessed as accumulation at S phase at 15 uM after 24 hrs by propidium iodide staining-based flow cytometry (reference value: 11.5%); type: functional
# A549 [17] = assay: Induction of apoptosis in human A549 cells assessed as decrease in cell viability at 5 to 15 uM after 24 hrs by phase contrast microscopic method; type: functional, cell-based
# [18] = Cell cycle arrest in human A549 cells assessed as accumulation at G0/G1 phase at 15 uM after 24 hrs by propidium iodide staining-based flow cytometry (reference value: 66.6%); type: functional
# A549 [19] = assay: Induction of apoptosis in human A549 cells assessed as increase in superoxide production after 24 to 48 hrs by mitoSOX red-probe based fluorescence microscopic method; type: functional, cell-based
# A549 [20] = assay: Induction of apoptosis in human A549 cells assessed as viable cells at 5 uM after 24 hrs by Annexin V-FITC/propidium iodide staining based flow cytometry (reference value: 94%); type: functional; details: A549, 24 h, read-out: Activity
# [21] = Antimigratory activity in human A549 cells assessed as cell migration at 5 uM after 24 hrs by phase contrast microscopy-based wound healing assay relative to control; type: functional
# A549 [22] = assay: Induction of apoptosis in human A549 cells assessed as necrotic cells at 5 uM after 24 hrs by Annexin V-FITC/propidium iodide staining based flow cytometry (reference value: 2.3%); type: functional
# [23] = Cytotoxicity against human PC3 cells assessed as cell growth inhibition after 48 hrs by MTT assay; type: functional, cell-based; details: PC-3, 48 h
# A549 [24] = assay: Induction of apoptosis in human A549 cells assessed as early apoptotic cells at 5 uM after 24 hrs by Annexin V-FITC/propidium iodide staining based flow cytometry (reference value: 2.6%); type: functional
# [25] = Cell cycle arrest in human A549 cells assessed as accumulation at G0/G1 phase at 10 uM after 24 hrs by propidium iodide staining-based flow cytometry (reference value: 66.6%); type: functional
# [26] = Antimigratory activity in human A549 cells assessed as cell migration at 10 uM after 24 hrs by phase contrast microscopy-based wound healing assay relative to control; type: functional
# A549 [27] = assay: Induction of apoptosis in human A549 cells assessed as viable cells at 10 uM after 24 hrs by Annexin V-FITC/propidium iodide staining based flow cytometry (reference value: 94%); type: functional; details: A549, 24 h, read-out: Activity
# [28] = Cell cycle arrest in human A549 cells assessed as accumulation at G2/M phase at 5 uM after 24 hrs by propidium iodide staining-based flow cytometry (reference value: 23.3%); type: functional
# A549 [29] = assay: Induction of morphological changes in human A549 cells assessed as cell shrinkage at 5 to 15 uM after 24 hrs by phase contrast microscopic method; type: functional, cell-based
# [30] = Cytotoxicity against human DU145 cells assessed as cell growth inhibition after 48 hrs by MTT assay; type: functional, cell-based; details: DU-145, 48 h
# [31] = Cytotoxicity against human MDA-MB-231 cells assessed as cell growth inhibition after 48 hrs by MTT assay; type: functional, cell-based; details: MDA-MB-231, 48 h
# [32] = Cytotoxicity against human MCF10A cells assessed as cell growth inhibition after 48 hrs by MTT assay; type: toxicity, cell-based, MCF-10A
# [33] = Antimigratory activity in human A549 cells assessed as cell migration at 15 uM after 48 hrs by phase contrast microscopy-based wound healing assay relative to control; type: functional
# A549 [34] = assay: Induction of mitochondrial membrane potential loss in human A549 cells at 10 uM after 24 hrs by rhodamine-123 staining based flow cytometry relative to control; type: functional
# A549 [35] = assay: Induction of apoptosis in human A549 cells assessed as condensation of chromatin at 5 uM after 24 hrs by acridine orange/ethidium bromide-dual staining based fluorescence microscopic method; type: functional, cell-based
# A549 [36] = assay: Inhibition of F-actin polymerization in human A549 cells assessed as disruption of actin fibre assembly after 24 hrs by rhodamine-phalloidin/[…]-dual staining based fluorescent microscopic method; type: cell-based
# A549 [37] = assay: Induction of apoptosis in human A549 cells assessed as viable cells at 15 uM after 24 hrs by Annexin V-FITC/propidium iodide staining based flow cytometry (reference value: 94%); type: functional; details: A549, 24 h, read-out: Activity
# A549 [38] = assay: Induction of apoptosis in human A549 cells assessed as nuclear condensation at 5 to 15 uM after 24 hrs by DAPI staining based fluorescence microscopic method; type: functional, cell-based
# A549 [39] = assay: Induction of apoptosis in human A549 cells after 24 hrs by Annexin V-FITC/propidium iodide staining based flow cytometry; type: functional, cell-based
smiles,measurement,setting,value
Cn1c(/C=C2\SC(=O)N(CC(=O)Nc3nc(-c4ccccc4)cs3)C2=O)nc2ccccc21,Activity,A549 [1],Active
same,Activity,A549 [2],3%
same,Activity,[3],Dose-dependent effect
same,Activity,A549 [4],Active
same,Activity,[5],Active
same,IC50,[6],11.5 µM
same,Activity,A549 [7],Active
same,Activity,A549 [8],19.4%
same,Activity,A549 [9],7.9%
same,Activity,[10],49.3%
same,Activity,A549 [11],11.9%
same,Activity,A549 [12],Active
same,Activity,[13],57.8%
same,Activity,A549 [14],Active
same,Activity,A549 [15],15.8%
same,Activity,[16],13.5%
same,Activity,A549 [17],Active
same,Activity,[18],30.5%
same,Activity,A549 [19],Dose-dependent effect
same,viability at 5 µM,A549 [20],80.5%
same,Activity,[21],77.8%
same,Activity,A549 [22],0.6%
same,IC50,[23],39.9 µM
same,Activity,A549 [24],12.8%
same,Activity,[25],44.8%
same,Activity,[26],74.3%
same,viability at 10 µM,A549 [27],73.3%
same,Activity,[28],41.4%
same,Activity,A549 [29],Active
same,IC50,[30],31.4 µM
same,IC50,[31],29.2 µM
same,IC50 at 48 h,[32],> 100 µM
same,Activity,[33],29.6%
same,Activity,A549 [34],30.6%
same,Activity,A549 [35],Active
same,inhibition,A549 [36],Dose-dependent effect
same,viability at 15 µM,A549 [37],66.8%
same,Activity,A549 [38],Active
same,Activity,A549 [39],Dose-dependent effect
